± gives the expanded uncertainty stated by the source.

Data on 7 molecules can be found in the NIST ThermoML archive (doi:10.1021/je060376d).

The nature of the series: refractive index (Na D-line) (dimensionless). Conditions: 298.15 K; 101.33 kPa; Liquid; Standard Abbe refractometry.
Usually refractive index stands for a measure of how strongly the sample bends light. With `COCCOCCOC` [2,5,8-trioxanonane], the refractive index worked out at 1.4057 ± 0.0008.
Consider `CC(C)=O` [acetone], for which the refractive index stood at 1.3562 ± 0.0012.
For `C1CCCCC1` [cyclohexane], the refractive index came out at 1.4236 ± 0.0008.
Consider `O=C1CCCCC1` [cyclohexanone], for which the refractive index was 1.4498 ± 0.0008.
Take `C=CCCCC` [hex-1-ene]: the refractive index is reported as 1.3853 ± 0.0008.
Consider `CCCCCC` [hexane], for which the refractive index stood at 1.3724 ± 0.0007.
As for `Cc1ccccc1` [toluene], the refractive index came to 1.4942 ± 0.0008.
